Values of other authors, collected in patent US8911774B2, “Topical composition for anti-aging skin treatment using dual DNA repair mechanism and method of use” (Cellhealth Technologies Ltd., priority 2009, dated 2014).

Tests used:
melanin synthesis = conditions: at a concentration of 0.1%
skin damage = conditions: shown clinically

CCCCCCCCC(CCCCCC)C(=O)OC[C@H](OC(=O)C(CCCCCC)CCCCCCCC)[C@H]1OC(=O)C(OC(=O)C(CCCCCC)CCCCCCCC)=C1OC(=O)C(CCCCCC)CCCCCCCC (stereo partly drawn) [tetrahexyldecyl ascorbate]
8-OHdG induced by UV-A radiation (8-OHdG): decreases
reduction of melanin synthesis (melanin synthesis): 80%
p53 expression induced by UV-B radiation (p53): decreases

Tocotrienol
strength and effectiveness at repairing skin damage relative to regular Vitamin E (skin damage): 40-50 times

CC1(C)C=Cc2c(ccc3c2OC[C@@H](c2ccc(O)cc2O)C3)O1 [Glabridin]
tyrosinase-inhibition activity relative to Kojic acid (tyrosinase): 25 times
tyrosinase-inhibition activity relative to ascorbic acid (tyrosinase): 75 times
